The values below come from patent publication US8298781B2, “Compositions and methods for characterizing and regulating olfactory sensation” (Duke University, priority 2007, dated 2012).

Experiment [1] has as its system human subjects. Nature of the experiment: Human olfactory psychophysics: valence rating by OR7D4 genotype. Particulars: for valence rating, OR7D4 RT/WM vs RT/RT subjects: 7-point scale, two concentrations pooled; for valence rating, RT/S84N subjects vs RT/RT controls: N=7 RT/S84N; for valence rating of OR7D4 WM/WM subjects relative to solvent propylene glycol: N=10 WM/WM; for valence rating, RT/P79L subjects vs RT/RT controls: N=30 RT/P79L. The format is in vivo. How it is done:
Human olfactory psychophysics. All human subjects gave informed consent to participate in this study and were tested in a well-ventilated room. Normal human subjects (n=412; 218 female, 194 male; median age 34, age range 19-75) were pre-screened to exclude pregnant women and those with medical conditions causing general impairment of the sense of smell. All subjects completed two replicates of the test separated by at least 4 days. Odors were presented in amber vials as previously described (see, e.g., Keller, A., et al., Nat Neurosci 7, 337-338 (2004); herein incorporated by reference in its entirety) using bar-coded symbols to ensure that subjects were blind to the identity of all odors. The intensity and valence of 66 odors at two concentrations (“high” and “low”) and two solvents was rated using a 7-point scale. Thresholds were calculated using the single staircase method with seven reversals (see, e.g., Doty, R. L., et al., Chem Senses 20, 645-656 (1995); Doty, R. L. & Laing, D. G. in Handbook of Olfaction and Gustation (ed. Doty, R. L.) pp. 203-228 (Marcel Dekker, Inc., New York, 2003); each of which are herein incorporated by reference in their entireties). Threshold tests included both steroids as binary dilutions from […] (binary dilution 6) to 1: 134,217,728 (binary dilution 27). Subjects who could not reliably distinguish a 1:64 dilution of androstenone and androstadienone from solvent were operationally defined as anosmic to these odorous steroids, although it could not be excluded that these subjects could detect higher concentrations of these steroids (see, e.g., Bremner, E. A., et al., Chem Senses 28, 423-432 (2003); herein incorporated by reference in its entirety). Odor profiling used the method established by Dravnieks, et al. (see, e.g., Dravnieks, A., et al., Science 218, 799-801 (1982); herein incorporated by reference in its entirety).
Stimuli for olfactory psychophysics. All odors were presented as one ml of an odor dilution in either propylene glycol or paraffin oil in 20 ml amber glass vials. All of these compounds were used in the intensity and valence rating portion of the smell test.
Olfactory ratings. The intensity and valence of 66 odors were rated at two different concentrations (high and low) and the intensity and valence of the two solvents (paraffin oil and propylene glycol) was rated three times. Prior to these ratings, six stimuli that represented the spectrum of intensity and valence of the stimuli used in the study were presented to allow the subjects to calibrate the usage of the scale. The subjects were unaware that the six first stimuli served that purpose. After the rating of the 66 odors at two concentrations and the rating of the solvents, 15 stimuli that were presented earlier in the experiment were repeated to test for the effect of adaptation and olfactory fatigue on the ratings. The subjects were not aware that the last 15 stimuli served this purpose. These 15 stimuli and the six first stimuli were not included in the analysis presented here. […] The 15 control stimuli and their concentrations were as follows:
In addition there was a button on the screen labeled “I can't smell anything” and a button labeled “Don't Know”. If the “Don't Know” button was pressed, no rating was recorded. If the “I can't smell anything” button was pressed, a 0 was recorded for the intensity rating and no rating was recorded for the valence rating. The other ratings were transformed according to the following scheme:
• Extremely Weak=1 • Very Weak=2 • Slightly Weak=3 • Neither Weak nor Strong=4 • Slightly Strong=5 • Very Strong=6 • Extremely Strong=7 Valence Rating • Extremely Unpleasant=1 • Very Unpleasant=2 • Slightly Unpleasant=3 • Neither Unpleasant nor Pleasant=4 • Slightly Pleasant=5 • Very Pleasant=6 • Extremely Pleasant=7
Averages for the ratings of the different genotypes were calculated. […]

Experiment [2] relates to human subjects. Put plainly: Human olfactory psychophysics: odor profiling with 146 descriptors. The format is in vivo. Particulars: androstenone 1/10,000. How it is done:
Human olfactory psychophysics. All human subjects gave informed consent to participate in this study and were tested in a well-ventilated room. Normal human subjects (n=412; 218 female, 194 male; median age 34, age range 19-75) were pre-screened to exclude pregnant women and those with medical conditions causing general impairment of the sense of smell. All subjects completed two replicates of the test separated by at least 4 days. Odors were presented in amber vials as previously described (see, e.g., Keller, A., et al., Nat Neurosci 7, 337-338 (2004); herein incorporated by reference in its entirety) using bar-coded symbols to ensure that subjects were blind to the identity of all odors. The intensity and valence of 66 odors at two concentrations (“high” and “low”) and two solvents was rated using a 7-point scale. Thresholds were calculated using the single staircase method with seven reversals (see, e.g., Doty, R. L., et al., Chem Senses 20, 645-656 (1995); Doty, R. L. & Laing, D. G. in Handbook of Olfaction and Gustation (ed. Doty, R. L.) pp. 203-228 (Marcel Dekker, Inc., New York, 2003); each of which are herein incorporated by reference in their entireties). Threshold tests included both steroids as binary dilutions from […] (binary dilution 6) to 1: 134,217,728 (binary dilution 27). […]
Assigning descriptors to odors. Subjects assessed the quality of six odors using an odor profiling method that has shown to produce stable profiles of odorants. […] Odor profiling typically took five minutes per odorant and was performed as a computer-controlled selftest in which the subject's responses were directly recorded. […] The descriptors used to describe the other four odors (vanillin, pentadecalactone, androstenone, and propylene glycol) were evaluated. […]

The next experiment concerns humans. The following applies: literature; cited from earlier work.
For a further experiment, the system named is cortisol levels. Particulars: Wyart et al. 2007; cited from earlier work.

With `C[C@]12CCC(=O)C[C@@H]1CC[C@@H]1[C@@H]2CC[C@]2(C)C=CC[C@@H]12` [androstenone, 5α-androst-16-en-3-one], in the experiment with human subjects [1], the “valence rating, OR7D4 RT/WM vs RT/RT subjects” value is given as “more pleasant”; the “valence rating, RT/S84N subjects vs RT/RT controls” value is given as “less pleasant”; the “valence rating of OR7D4 WM/WM subjects relative to solvent propylene glycol” value was “more unpleasant than the solvent”; the “valence rating, RT/P79L subjects vs RT/RT controls” value is on record as “more pleasant”. Also, in the experiment on human subjects [2], the “use of descriptor "sickening", OR7D4 RT/WM vs RT/RT subjects” value was “less likely” and the “use of descriptor "vanilla", OR7D4 RT/WM vs RT/RT subjects” value is recorded as “more likely”. In the experiment with humans, the “humans fitting the criteria of specific anosmia” value was 6% and the “humans with reduced sensitivity” value is “Up to 30%”.
For `C[C@@]12C=CC[C@H]1[C@@H]1CCC3=CC(=O)CC[C@]3(C)[C@H]1CC2` [androstadienone, androsta-4,16-dien-3-one], in the experiment on human subjects [1], the “valence rating, OR7D4 RT/WM vs RT/RT subjects” value is listed as “more pleasant”; the “valence rating, RT/S84N subjects vs RT/RT controls” value is given as “less pleasant”; the “valence rating of OR7D4 WM/WM subjects relative to solvent propylene glycol” value is “more unpleasant than the solvent”; the “valence rating, RT/P79L subjects vs RT/RT controls” value was “more pleasant”. In addition, in the experiment on cortisol levels, the “cortisol levels in women smelling the odor vs women not smelling it” value is on record as “maintained at higher levels”.
